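A five-concentration, 48-hour dose response in 96-well plates underlies each endpoint, interpolated linearly between surrounding concentrations. GI50 = concentration required for 50% inhibition of growth. The concentration for full growth arrest is given as TGI.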
Assays:
Assay in all cases: DTP human tumour cell line panel, 48 h
DU-145 prostate = test system: DU-145 prostate
SR leukemia = test system: SR leukemia
MDA-MB-435 = test system: MDA-MB-435
SK-MEL-28 melanoma = test system: SK-MEL-28 melanoma
SF-539 CNS = test system: SF-539 CNS
NCI/ADR-RES ovarian = test system: NCI/ADR-RES ovarian
HS 578T breast = test system: HS 578T breast
SK-MEL-2 melanoma = test system: SK-MEL-2 melanoma
PC-3 prostate = test system: PC-3 prostate
HCT-15 colon = test system: HCT-15 colon
MDA-MB-231 breast = test system: MDA-MB-231 breast
HOP-92 NSCLC = test system: HOP-92 NSCLC
ACHN renal = test system: ACHN renal
HT29 colon = test system: HT29 colon
SK-MEL-5 melanoma = test system: SK-MEL-5 melanoma
UACC-257 melanoma = test system: UACC-257 melanoma
SF-295 CNS = test system: SF-295 CNS
TK-10 renal = test system: TK-10 renal
LOX IMVI melanoma = test system: LOX IMVI melanoma
UACC-62 melanoma = test system: UACC-62 melanoma
T-47D breast = test system: T-47D breast
SK-OV-3 ovarian = test system: SK-OV-3 ovarian
MOLT-4 leukemia = test system: MOLT-4 leukemia
NCI-H23 lung = test system: NCI-H23 lung
OVCAR-3 ovarian = test system: OVCAR-3 ovarian
HCC-2998 colon = test system: HCC-2998 colon
MALME-3M melanoma = test system: MALME-3M melanoma
SNB-75 CNS = test system: SNB-75 CNS
EKVX NSCLC = test system: EKVX NSCLC
OVCAR-5 ovarian = test system: OVCAR-5 ovarian
SNB-19 CNS = test system: SNB-19 CNS
SN12C renal = test system: SN12C renal
HOP-62 NSCLC = test system: HOP-62 NSCLC
UO-31 renal = test system: UO-31 renal
A549 NSCLC = test system: A549 NSCLC
SF-268 CNS = test system: SF-268 CNS
KM12 colon = test system: KM12 colon
MCF7 breast = test system: MCF7 breast
NCI-H460 lung = test system: NCI-H460 lung
A498 renal = test system: A498 renal
SW-620 colon = test system: SW-620 colon
CAKI-1 renal = test system: CAKI-1 renal
NCI-H226 lung = test system: NCI-H226 lung
HCT-116 colon = test system: HCT-116 colon
K-562 leukemia = test system: K-562 leukemia
BT-549 breast = test system: BT-549 breast
RXF 393 renal = test system: RXF 393 renal
OVCAR-8 ovarian = test system: OVCAR-8 ovarian
COLO 205 colon = test system: COLO 205 colon
OVCAR-4 ovarian = test system: OVCAR-4 ovarian
IGROV1 ovarian = test system: IGROV1 ovarian
RPMI-8226 leukemia = test system: RPMI-8226 leukemia
786-0 renal = test system: 786-0 renal
M14 melanoma = test system: M14 melanoma
NCI-H522 lung = test system: NCI-H522 lung
HL-60(TB) leukemia = test system: HL-60(TB) leukemia
U251 CNS = test system: U251 CNS
CCRF-CEM leukemia = test system: CCRF-CEM leukemia

## O=C(c1ccccc1)c1ccc(-c2ccc(O)cc2)cc1
DU-145 prostate
  GI50: 5.62 µM
  TGI: 29.4 µM
SR leukemia
  GI50: 3 µM
  TGI: 18.1 µM
MDA-MB-435
  GI50: 0.328 µM
  TGI: 1.55 µM
SK-MEL-28 melanoma
  GI50: 10.4 µM
  TGI: > 61.7 µM
SF-539 CNS
  GI50: 14.6 µM
  TGI: 56.9 µM
NCI/ADR-RES ovarian
  GI50: 5.18 µM
  TGI: 54.9 µM
HS 578T breast
  GI50: 17.3 µM
  TGI: > 53.3 µM
SK-MEL-2 melanoma
  GI50: 6.95 µM
  TGI: 61 µM
PC-3 prostate
  GI50: 9.19 µM
  TGI: 58 µM
HCT-15 colon
  GI50: 5 µM
  TGI: 27.7 µM
MDA-MB-231 breast
  GI50: 6.08 µM
  TGI: 37.6 µM
HOP-92 NSCLC
  GI50: 5.63 µM
  TGI: 30.3 µM
ACHN renal
  GI50: 6.88 µM
  TGI: 36.3 µM
HT29 colon
  GI50: 31.7 µM
  TGI: > 100 µM
SK-MEL-5 melanoma
  GI50: 1.05 µM
  TGI: 11.8 µM
UACC-257 melanoma
  GI50: 16 µM
  TGI: 66.5 µM
SF-295 CNS
  GI50: 2.43 µM
  TGI: 10.5 µM
TK-10 renal
  GI50: 8.43 µM
  TGI: 50.7 µM
LOX IMVI melanoma
  GI50: 11.1 µM
  TGI: 28.8 µM
UACC-62 melanoma
  GI50: 0.687 µM
  TGI: 33.7 µM
T-47D breast
  GI50: 3.75 µM
  TGI: 35.6 µM
SK-OV-3 ovarian
  GI50: 14.8 µM
  TGI: > 71.6 µM
MOLT-4 leukemia
  GI50: 4.28 µM
  TGI: 33.4 µM
NCI-H23 lung
  GI50: 6.16 µM
  TGI: 42.7 µM
OVCAR-3 ovarian
  GI50: 7.59 µM
  TGI: 31.6 µM
HCC-2998 colon
  GI50: 15.2 µM
  TGI: 43.9 µM
MALME-3M melanoma
  GI50: 0.803 µM
  TGI: 34.9 µM
SNB-75 CNS
  GI50: 4.22 µM
  TGI: 34.5 µM
EKVX NSCLC
  GI50: 4.42 µM
  TGI: 41.5 µM
OVCAR-5 ovarian
  GI50: 31 µM
  TGI: > 100 µM
SNB-19 CNS
  GI50: 6.01 µM
  TGI: > 100 µM
SN12C renal
  GI50: 20.2 µM
  TGI: > 100 µM
HOP-62 NSCLC
  GI50: 7.08 µM
  TGI: 25.9 µM
UO-31 renal
  GI50: 4.04 µM
  TGI: 50.3 µM
A549 NSCLC
  GI50: 3.9 µM
  TGI: > 65.3 µM
SF-268 CNS
  GI50: 5.85 µM
  TGI: 57.3 µM
KM12 colon
  GI50: 2.85 µM
  TGI: 22.3 µM
MCF7 breast
  GI50: 0.34 µM
  TGI: 25.2 µM
NCI-H460 lung
  GI50: 4.2 µM
  TGI: 39.3 µM
A498 renal
  GI50: 13 µM
  TGI: > 58.9 µM
SW-620 colon
  GI50: 5.23 µM
  TGI: > 100 µM
CAKI-1 renal
  GI50: 2.35 µM
  TGI: 9.84 µM
NCI-H226 lung
  GI50: 16.8 µM
  TGI: > 73.7 µM
HCT-116 colon
  GI50: 8.42 µM
  TGI: 44.7 µM
K-562 leukemia
  GI50: 2.92 µM
  TGI: > 60.7 µM
BT-549 breast
  GI50: 4.04 µM
  TGI: 31.3 µM
RXF 393 renal
  GI50: 7.93 µM
  TGI: 33.2 µM
OVCAR-8 ovarian
  GI50: 12.4 µM
  TGI: 68.9 µM
COLO 205 colon
  GI50: 19.4 µM
  TGI: 45.9 µM
OVCAR-4 ovarian
  GI50: 5.87 µM
  TGI: > 100 µM
IGROV1 ovarian
  GI50: 3.69 µM
  TGI: 22.7 µM
RPMI-8226 leukemia
  GI50: 2.7 µM
  TGI: 18.3 µM
786-0 renal
  GI50: 17.8 µM
  TGI: > 66.8 µM
M14 melanoma
  GI50: 2.04 µM
  TGI: > 100 µM
NCI-H522 lung
  GI50: 1.66 µM
  TGI: 8.47 µM
HL-60(TB) leukemia
  GI50: 1.89 µM
  TGI: 11.1 µM
U251 CNS
  GI50: 3.69 µM
  TGI: 20.1 µM
CCRF-CEM leukemia
  GI50: 0.533 µM
  TGI: > 23.9 µM

## CCN(CC)c1ccc(NC(C(=O)c2ccccc2)c2ccccc2)cc1 (stereo not given)
DU-145 prostate
  GI50: 2.24 µM
  TGI: 5.08 µM
SR leukemia
  GI50: 0.594 µM
  TGI: > 100 µM
MDA-MB-435
  GI50: 2.25 µM
  TGI: 6.05 µM
SK-MEL-28 melanoma
  GI50: 1.81 µM
  TGI: 3.6 µM
SF-539 CNS
  GI50: 2.11 µM
  TGI: 4.98 µM
NCI/ADR-RES ovarian
  GI50: 2.54 µM
  TGI: 6.21 µM
HS 578T breast
  GI50: 3.41 µM
  TGI: 47.1 µM
SK-MEL-2 melanoma
  GI50: 3.44 µM
  TGI: 16.8 µM
PC-3 prostate
  GI50: 3.62 µM
  TGI: 16.8 µM
HCT-15 colon
  GI50: 1.96 µM
  TGI: 5.31 µM
MDA-MB-231 breast
  GI50: 2.85 µM
  TGI: 10.3 µM
HOP-92 NSCLC
  GI50: 2.22 µM
  TGI: 8.21 µM
ACHN renal
  GI50: 1.9 µM
  TGI: 3.82 µM
HT29 colon
  GI50: 3.19 µM
  TGI: > 100 µM
SK-MEL-5 melanoma
  GI50: 2 µM
  TGI: 4.66 µM
UACC-257 melanoma
  GI50: 4.86 µM
  TGI: 22.1 µM
SF-295 CNS
  GI50: 3.34 µM
  TGI: 12.6 µM
TK-10 renal
  GI50: 2.49 µM
  TGI: 7.53 µM
LOX IMVI melanoma
  GI50: 1.57 µM
  TGI: 3 µM
UACC-62 melanoma
  GI50: 1.92 µM
  TGI: 4.09 µM
T-47D breast
  GI50: 3.35 µM
  TGI: 29 µM
SK-OV-3 ovarian
  GI50: 18.6 µM
  TGI: 78.3 µM
MOLT-4 leukemia
  GI50: 0.696 µM
  TGI: 24.4 µM
NCI-H23 lung
  GI50: 2.15 µM
  TGI: 4.67 µM
OVCAR-3 ovarian
  GI50: 3.05 µM
  TGI: 8.15 µM
HCC-2998 colon
  GI50: 2.81 µM
  TGI: 8.62 µM
MALME-3M melanoma
  GI50: 2.76 µM
  TGI: 7.44 µM
SNB-75 CNS
  GI50: 2.24 µM
  TGI: 10.7 µM
EKVX NSCLC
  GI50: 3.59 µM
  TGI: 14.4 µM
OVCAR-5 ovarian
  GI50: 2.24 µM
  TGI: 5.26 µM
SNB-19 CNS
  GI50: 3.45 µM
  TGI: 19.1 µM
HOP-62 NSCLC
  GI50: 4.31 µM
  TGI: 16.5 µM
UO-31 renal
  GI50: 1.9 µM
  TGI: 4.18 µM
A549 NSCLC
  GI50: 10.5 µM
  TGI: 54 µM
SF-268 CNS
  GI50: 4.23 µM
  TGI: 17.4 µM
KM12 colon
  GI50: 4.03 µM
  TGI: 15.7 µM
MCF7 breast
  GI50: 2.23 µM
  TGI: 16.6 µM
NCI-H460 lung
  GI50: 3.08 µM
  TGI: 11.4 µM
A498 renal
  GI50: 2.71 µM
  TGI: 10.1 µM
SW-620 colon
  GI50: 2.25 µM
  TGI: 5.93 µM
CAKI-1 renal
  GI50: 3.36 µM
  TGI: 11.6 µM
NCI-H226 lung
  GI50: 1.76 µM
  TGI: 3.53 µM
HCT-116 colon
  GI50: 2.58 µM
  TGI: 6.6 µM
K-562 leukemia
  GI50: 3.27 µM
  TGI: 55.1 µM
BT-549 breast
  GI50: 2.85 µM
  TGI: 9.59 µM
RXF 393 renal
  GI50: 1.7 µM
  TGI: 3.47 µM
OVCAR-8 ovarian
  GI50: 3.28 µM
  TGI: > 100 µM
COLO 205 colon
  GI50: 3.41 µM
  TGI: 11.9 µM
OVCAR-4 ovarian
  GI50: 4.78 µM
  TGI: 46.2 µM
IGROV1 ovarian
  GI50: 4.31 µM
  TGI: 18.1 µM
RPMI-8226 leukemia
  GI50: 2.61 µM
  TGI: 12.3 µM
786-0 renal
  GI50: 1.83 µM
  TGI: 3.59 µM
M14 melanoma
  GI50: 2.16 µM
  TGI: 5.91 µM
NCI-H522 lung
  GI50: 2.3 µM
  TGI: 7.05 µM
HL-60(TB) leukemia
  GI50: 3.24 µM
  TGI: 20.9 µM
U251 CNS
  GI50: 2.72 µM
  TGI: 10 µM
CCRF-CEM leukemia
  GI50: 2.29 µM
  TGI: 13.5 µM

Reference: PubChem BioAssay (NCI)
